Results: article PMC12189828, “Substitution of Proline Residues by 4-Fluoro-L-Proline Affects the Mechanism of the Proline-Rich Antimicrobial Peptide Api137” (Antibiotics, 2025)
Converted amounts (≈) assume the structure as drawn. Where a SMILES comes first, the peptide text is derived from it. The star is where a group is joined. Orn(α-tetramethylguanidino) = CN(C)C(=N[C@@H](CCCN)C(=O)*)N(C)C

Legend:
[1] = test system: E. coli RN31; assay: Minimum inhibitory concentration (MIC) against E. coli RN31; type: cell-based, Escherichia coli; conditions: E. coli RN31, 33% TSB, 37 °C overnight (~16 h), 7.5 × 10^6 bacteria/mL; two independent experiments with two replicates each (n = 4)
Procedure: Minimum inhibitory concentrations were determined for E. coli RN31 grown in 33% TSB (37 °C, 200 rpm) with a starting OD600 of 0.05. After four hours, the cell count was adjusted to 1.5 × 10^7 bacteria/mL. In a transparent 96-well plate, the peptides were diluted in a two-fold dilution series in 33% TSB over 10 dilution steps, and E. coli was added to obtain a final cell count of 7.5 × 10^6 bacteria/mL and incubated at 37 °C overnight. OD600 was determined using a PARADIGM^TM microplate reader (Beckman Coulter, Salzburg, Austria) before and after cultivation. The MIC was defined as the lowest peptide concentration preventing visible bacterial growth.

[2] = target: 70S ribosomes isolated from E. coli BW25113 (Escherichia coli, UniProt P60723+P61175); assay: Fluorescence polarization, competition with cf-Api137 for 70S ribosome binding (Ki); conditions: crude 70S ribosome extract, fluorescence polarization, 28 °C, 90 min + 90 min; two independent experiments with two replicates each (n = 4); Table 2
Procedure: E. coli BW25113 were cultivated in LB medium and harvested by centrifugation (5000× g, 15 min, 4 °C) at an OD600 of 3–4. Cell pellets were washed in ribosome preparation buffer (20 mmol/L HEPES-KOH, 6 mmol/L MgCl2, 30 mmol/L NH4Cl, pH 7.6, 4 °C), centrifuged (4100× g, 30 min, 4 °C), and resuspended in ribosome preparation buffer (0.5 g/L) containing freshly added 2-mercaptoethanol (4 mmol/L) and lysozyme. Cells were incubated on ice for 30 min and disrupted in six cycles using a FastPrep-24^TM 5G instrument (MP Biomedicals, Eschwege, Germany) with the BigPrep 50 mL setting (40 s, 4.0 m/s), interrupted by one minute of incubation on ice between the cycles. After a centrifugation step (1620× g, 5 min, 4 °C), DNase I (5 U/mL) was added to the supernatant and incubated for 1 h on ice. Cell debris was removed by centrifugation at 16,000× g (30 min, 4 °C) and twice at 32,000× g (60 min, 4 °C). Crude ribosomes were obtained by centrifugation at 165,000× g (17 h, 4 °C). […]
Inhibition constants (Ki) were measured for the 70S ribosome extract using cf-labeled and unlabeled peptides in ribosome preparation buffer. […] Fluorescence polarization was determined on a PARADIGM^TM microplate reader in the top reading position (λex = 485 nm, λem = 535 nm). […] Ki values were calculated as described by Mathias and Jung.

[3] = test system: 50S subunit assembly / 70S ribosome in E. coli RN31; assay: Ribosome profile analysis (RPA), sucrose gradient of E. coli RN31 lysate; type: cell-based, Escherichia coli; conditions: 90 min
[4] = test system: eukaryotic cell lines; conditions: cited from earlier work
[5] = test system: mice; conditions: cited from earlier work

## CC[C@H](C)[C@H](NC(=O)[C@H](Cc1ccc(O)cc1)NC(=O)[C@@H](NC(=O)[C@@H]1CCCN1C(=O)[C@H](CCCNC(=N)N)NC(=O)[C@H](CC(N)=O)NC(=O)[C@H](CC(N)=O)NC(=O)[C@H](CCCN)N=C(N(C)C)N(C)C)C(C)C)C(=O)N1CCC[C@H]1C(=O)N[C@@H](CCCNC(=N)N)C(=O)N1CCC[C@H]1C(=O)N[C@@H](CCCNC(=N)N)C(=O)N1CCC[C@H]1C(=O)N1CCC[C@H]1C(=O)N[C@@H](Cc1c[nH]cn1)C(=O)N1CCC[C@H]1C(=O)N[C@@H](CCCNC(=N)N)C(=O)N[C@@H](CC(C)C)C(=O)O [Api137] ({Orn(α-tetramethylguanidino)}-NNRPVYIPRPRPPHPRL-OH; N-terminus and C-terminus assumed)
[1]
  MIC: 4 µg/mL (≈ 1.75 µM)
[2]
  Ki: 2.6 ± 0.2 nM
[3]; E. coli RN31, 33% TSB, peptide 8 µg/mL, 5–25% sucrose gradient, n = 2 (Api137 n = 7)
  RPA [pre-50S formation]: yes
[3]; E. coli RN31, peptide 8 µg/mL, sucrose gradient profile
  70S peak (area) relative to untreated control: ~ 50%
[4]
  cytotoxicity to eukaryotic cell lines: virtually non-toxic
[5]
  tolerability in mice: well tolerated
